Assay results: patent publication US20170073337A1, “DIHYDROTHIAZINE AND DIHYDROOXAZINE DERIVATIVES HAVING BACE1 INHIBITORY ACTIVITY” (Shionogi & Co., Ltd., priority 2014, published 2017)

Experiments:
[1] = Brain distribution studies; type: in vivo; settings: rat, 30 minutes later, area ratio brain/plasma; for Kp at 0.5 h: brain / plasma, iv, 0.5 mg/mL/kg
Method: Compound of the present invention was intravenously administered to a rat at 0.5 mg/mL/kg dosage. 30 minutes later, all blood was drawn from the abdominal aorta under isoflurane anesthesia for death from exsanguination. […] The obtained blood was used as plasma after centrifuging. The control plasma was added to the brain sample at 1:1. The control brain homogenate was added to the plasma sample at 1:1. Each sample was measured using LC/MS/MS. The obtained area ratio (a brain/plasma) was used for the brain Kp value.

CYP2C9 = target: T1, CYP2C9 (Homo sapiens, UniProt P11712); assay: CYP inhibition test (CYP2C9); type: in vitro ADME; settings: pooled human liver microsomes; tolbutamide methyl-hydroxylation
T1 construct: The commercially available pooled human liver microsomes are used as an enzyme resource; from tissue; host or cells: pooled human liver microsomes
Outline: (§1)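 Metabolite formation was quantified by LC/MS/MS: dextrorphan (2D6, 5 μmol/L dextromethorphan), terfenadine alcohol (3A4, 1 μmol/L terfenadine), 4′-hydroxymephenytoin (2C19, 50 μmol/L S-mephenytoin) and hydroxytolbutamide (2C9, 100 μmol/L tolbutamide). Reactions used NADPH-started pooled human liver microsomes (0.2 mg/mL) at 37 °C with compound at 1–20 μmol/L (four points). IC50 was calculated by logistic model relative to the DMSO control.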

Recombinant human BACE1 [2] = target: T2, Recombinant human BACE1 (Homo sapiens, UniProt P56817); assay: Assay of BACE1 inhibitory activity: 96-well; type: biochemical; settings: Assay format 96-well
T2 construct: purchased R&D Systems
Method: 48.5 μL of substrate peptide solution (Biotin-XSEVNLDAEFRHDSGC-Eu: X=ε-amino-n-capronic acid. Eu=Europium cryplate) was added to each well of 96-hole half-area plate (a black plate: Costar), and after addition of 0.5 μl of the compound of the present invention (DMSO solution) and 1 μl of Recombinant human BACE1(R&D Systems), the reaction mixture was incubated at 30° C. for 3.5 hours. The substrate peptide was synthesized by reacting Cryptate TBPCOOH mono SMP (CIS bio international) with Biotin-XSEVNLDAEFRHDSGC (Peptide Institute, Inc.).
After the incubation for reaction, 50 μl of 8.0 μg/ml Streptavidin-XL665 (CIS bio international) dissolved in phosphate buffer (150 mmol/L […]—KH2PO4, pH 7.0, 0.008% Triton X-100, 0.8 mol/L KF) was added to each well and left stand at 30° C. for 45 minutes.

[3] = tested on: Aβ production in neuroblastoma SH-SY5Y cells (SH/APPwt); assay: β-amyloid (Aβ) production inhibitory effect in cell: 384-well; type: cell-based; settings: Homo sapiens, Assay format 384-well
Outline: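 Aβ1-40 secreted by SH/APPwt neuroblastoma cells was quantified by HTRF (overnight, 4 °C, light-protected; emission 620/665 nm). Cells were exposed to compound from seeding for 21 h at 1% final DMSO.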

Recombinant human BACE1 [4] = target: T2, Recombinant human BACE1; assay: Assay of BACE1 inhibitory activity: 384-well; type: biochemical; settings: Assay format 384-well
Outline: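 Recombinant human BACE1 was incubated 2 h at 25 °C with a biotin/Eu-cryptate-labelled peptide substrate and compound in DMSO. Streptavidin-XL665 in pH 7.0 phosphate buffer containing 0.8 mol/L KF was then added for 30 min at 25 °C for HTRF detection.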

CYP2D6 = target: T3, CYP2D6 (Homo sapiens, UniProt P10635); assay: CYP inhibition test (CYP2D6); type: in vitro ADME; settings: pooled human liver microsomes; dextromethorphan O-demethylation
T3 construct: The commercially available pooled human liver microsomes are used as an enzyme resource; from tissue; host or cells: pooled human liver microsomes
Outline: as §1

T2 sequence (P56817 46-501): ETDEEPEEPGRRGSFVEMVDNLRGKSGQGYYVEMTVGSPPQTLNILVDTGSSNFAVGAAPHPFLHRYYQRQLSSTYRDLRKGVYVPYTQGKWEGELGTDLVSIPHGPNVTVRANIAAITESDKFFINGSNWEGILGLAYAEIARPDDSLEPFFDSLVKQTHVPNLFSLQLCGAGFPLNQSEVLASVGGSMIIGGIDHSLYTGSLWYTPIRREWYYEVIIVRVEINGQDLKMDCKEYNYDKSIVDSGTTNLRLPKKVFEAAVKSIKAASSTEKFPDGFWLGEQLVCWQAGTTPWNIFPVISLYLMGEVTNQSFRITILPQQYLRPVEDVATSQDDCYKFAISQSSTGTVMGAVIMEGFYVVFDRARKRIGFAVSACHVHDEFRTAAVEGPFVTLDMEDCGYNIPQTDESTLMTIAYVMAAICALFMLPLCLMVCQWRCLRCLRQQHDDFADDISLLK
T1 sequence (P11712 whole entry): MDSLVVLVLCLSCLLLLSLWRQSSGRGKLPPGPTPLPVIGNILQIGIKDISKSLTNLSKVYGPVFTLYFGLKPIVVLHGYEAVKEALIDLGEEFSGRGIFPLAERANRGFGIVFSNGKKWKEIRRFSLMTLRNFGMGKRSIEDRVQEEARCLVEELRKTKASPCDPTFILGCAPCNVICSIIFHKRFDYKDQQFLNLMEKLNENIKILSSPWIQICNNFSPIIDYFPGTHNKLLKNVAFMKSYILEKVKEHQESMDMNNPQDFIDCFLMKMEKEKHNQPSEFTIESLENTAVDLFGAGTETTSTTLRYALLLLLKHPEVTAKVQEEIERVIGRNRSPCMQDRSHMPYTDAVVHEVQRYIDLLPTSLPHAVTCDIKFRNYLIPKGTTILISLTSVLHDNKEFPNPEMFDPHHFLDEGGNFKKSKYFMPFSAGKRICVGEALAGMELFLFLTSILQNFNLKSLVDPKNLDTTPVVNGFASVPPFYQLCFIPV
T3 sequence (P10635 whole entry): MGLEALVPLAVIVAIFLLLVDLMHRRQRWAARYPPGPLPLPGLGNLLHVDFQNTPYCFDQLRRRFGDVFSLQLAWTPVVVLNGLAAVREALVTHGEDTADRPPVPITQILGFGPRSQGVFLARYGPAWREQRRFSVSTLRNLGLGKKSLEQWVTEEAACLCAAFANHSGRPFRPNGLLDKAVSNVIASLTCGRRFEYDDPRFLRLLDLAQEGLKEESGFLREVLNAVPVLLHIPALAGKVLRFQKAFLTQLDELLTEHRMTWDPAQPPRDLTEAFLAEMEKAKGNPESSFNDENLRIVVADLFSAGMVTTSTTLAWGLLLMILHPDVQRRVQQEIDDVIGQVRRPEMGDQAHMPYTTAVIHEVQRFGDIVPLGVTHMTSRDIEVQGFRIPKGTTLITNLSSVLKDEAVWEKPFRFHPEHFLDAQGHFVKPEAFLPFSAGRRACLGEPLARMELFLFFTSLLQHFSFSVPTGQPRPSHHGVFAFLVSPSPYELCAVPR

Row | Kp at 0.5 h [1] | IC50 (CYP2C9) [nM] | IC50 (Recombinant human BACE1 [2]) [nM] | IC50 [3] [nM] | IC50 (Recombinant human BACE1 [4]) [nM] | Kp Brain ([1]; intravenous 0.5 mg/mL/kg) | IC50 (CYP2D6) [nM] | Structure (SMILES)
1 | 2.9 | ≥ 10000 | 67.9 | – | – | – | – | C[C@H]1SC(N)=N[C@](C)(c2nc(NC(=O)c3ccc(F)cn3)ccc2F)[C@H]1F [Compound I-2]
2 | 1.1 | – | – | 1.2 | 4.77 | – | – | C[C@H]1SC(N)=N[C@](C)(c2cc(NC(=O)c3cnc(OC(F)F)cn3)ccc2F)[C@H]1F [Compound I-47]
3 | – | – | – | 15 | 14.6 | 1.9 | – | C[C@H]1[C@@H](C(F)(F)F)OC(N)=N[C@]1(C)c1cc(NC(=O)c2cnc(OCF)cn2)ccc1F [Compound I-41]
4 | 1 | – | – | 0.25 | 6.37 | – | – | COC[C@H]1SC(N)=N[C@](C)(c2cc(NC(=O)c3cnc(OCF)cn3)ccc2F)[C@H]1F [Compound I-91]
5 | 0.74 | ≥ 20000 | – | 6 | 21.1 | – | ≥ 20000 | CC(F)(F)[C@H]1OC(N)=N[C@](C)(c2cc(NC(=O)c3ccc(C#N)cn3)ccc2F)[C@H]1F [Compound I-40]
6 | 2.1 | – | – | 5.4 | 7.49 | – | ≥ 10000 | C[C@H]1SC(N)=N[C@](C)(c2cc(NC(=O)c3cnc(OCC(F)F)cn3)ccc2F)[C@H]1F [Compound I-48]
7 | 0.51 | ≥ 20000 | 46.5 | – | – | – | – | CO[C@H]1[C@@H](CF)OC(N)=N[C@]1(C)c1cc(NC(=O)c2cnc(OCF)cn2)ccc1Cl [Compound I-19]
8 | 2 | – | – | 21 | 14.7 | – | – | COc1cnc(C(=O)Nc2ccc(F)c([C@@]3(C)N=C(N)O[C@H](C(C)(F)F)[C@@H]3F)c2)cn1 [Compound I-42]
9 | 1.8 | – | 11.8 | – | – | – | – | COc1cnc(C(=O)Nc2ccc(F)c([C@@]3(C)N=C(N)S[C@H](C)[C@@H]3F)c2)cn1 [Compound I-8]
10 | 3.2 | ≥ 20000 | 52.1 | – | – | – | – | C[C@H]1[C@@H](C(F)(F)F)OC(N)=N[C@]1(C)c1cc(NC(=O)c2cnc(OCF)cn2)ccc1F [Compound I-30]
11 | 1.9 | – | – | 2.4 | 23.6 | – | ≥ 10000 | C[C@H]1SC(N)=N[C@](C)(c2cc(NC(=O)c3cnc(OCC(F)(F)F)cn3)ccc2F)[C@H]1F [Compound I-46]
12 | 1.7 | – | – | 1.1 | 21.9 | – | – | C[C@H]1SC(N)=N[C@](C)(c2cc(NC(=O)c3cnc(C(F)F)cn3)ccc2F)[C@H]1F [Compound I-65]
13 | 4.8 | ≥ 10000 | – | 0.25 | 7.74 | – | – | C[C@H]1SC(N)=N[C@](C)(c2cc(NC(=O)c3cnc(OCF)cn3)ccc2F)C12CC(F)(F)C2 [Compound I-62]
14 | 2 | – | 47.5 | – | – | – | – | C[C@@]1(c2cc(NC(=O)c3ccc(C#N)cn3)ccc2F)C[C@@](C)(C(F)(F)F)OC(N)=N1 [Compound I-7]
15 | 1.8 | – | – | 0.99 | 7.84 | – | ≥ 20000 | C[C@H]1SC(N)=N[C@](C)(c2cc(NC(=O)c3ccc(F)cn3)ccc2F)[C@H]1F [Compound I-116]
16 | 0.63 | – | – | 0.42 | 7.62 | – | ≥ 20000 | Cc1cc(C#N)cnc1C(=O)Nc1ccc(F)c([C@@]2(C)N=C(N)S[C@H](C)[C@@H]2F)c1 [Compound I-52]
17 | – | ≥ 20000 | 22.3 | – | – | – | ≥ 20000 | C[C@H]1[C@@H](C(F)F)OC(N)=N[C@]1(C)c1cc(NC(=O)c2ccc(C#N)cn2)ccc1F [Compound I-31]
18 | – | ≥ 20000 | 72.7 | – | – | – | ≥ 20000 | CO[C@H]1[C@@H](CF)OC(N)=N[C@]1(C)c1cc(NC(=O)c2ccc(F)cn2)ccc1Cl [Compound I-20]
19 | – | ≥ 20000 | 156 | – | – | – | ≥ 20000 | CO[C@H]1[C@@H](CF)OC(N)=N[C@]1(C)c1cc(NC(=O)c2ccc(F)cn2)ccc1F [Compound I-25]
20 | – | ≥ 20000 | 22.6 | – | – | – | ≥ 20000 | C[C@H]1[C@@H](C(F)(F)F)OC(N)=N[C@]1(C)c1cc(NC(=O)c2ccc(C#N)cn2)ccc1F [Compound I-28]
